Tests used:
rat brown adipose tissue = assay: Ex vivo model of thermogenesis: oxygen consumption of a sample of rat brown adipose tissue; format: cell-based
Protocol: These studies were carried out on an ex vivo pharmacological model of thermogenesis. The principle is to measure the oxygen consumption of a sample of rat brown adipose tissue; the oxygen consumption is proportional to the thermogenesis induced in the adipose tissue by the various test substances.

thermogenesis = assay: Increase in thermogenesis in man (total expenditure of energy over 24 h, 10 volunteers); format: in vivo
Protocol: The increase in thermogenesis in man by an extract of green tea according to the invention was also determined. A similar study was carried out on 10 volunteers receiving at each meal either 500 mg of an extract of green tea (corresponding to 125 mg of catechols and 50 mg of caffeine), or 50 mg of caffeine, or a placebo.

SMILES	Increase in oxygen consumption (rat brown adipose tissue; Caffeine 0, EGCG 100 μM)	Increase in oxygen consumption (rat brown adipose tissue; Caffeine 0, EGCG 200 μM)	total expenditure of energy over 24 h (thermogenesis; 50 mg of caffeine at each meal, placebo 9538 kJ)	effect on thermogenesis, result in words (thermogenesis; caffeine alone at the same dose as provided by the extract)	Increase in oxygen consumption (rat brown adipose tissue; Caffeine 100 μM, EGCG 0)
O=C(O[C@@H]1Cc2c(O)cc(O)cc2O[C@@H]1c1cc(O)c(O)c(O)c1)c1cc(O)c(O)c(O)c1 [EGCG, epigallocatechol gallate]	no	+40%	–	–	–
Cn1c(=O)c2c(ncn2C)n(C)c1=O [caffeine]	–	–	9599 kJ	does not increase thermogenesis	no

Source: patent US6830765B2, “Green tea extract for treating obesity” (priority 1999, dated 2004)
